One experiment concerns Female CD-1 mice. The experiment is described as follows: Dexamethasone-induced thymic and splenic atrophy, anti-glucocorticoid effect (Example 4). It is filed as in vivo. Conditions: for Spleen Wt. / Thymus Wt.: no DEX. The protocol:
Female CD-1 mice were obtained from Charles River Laboratories, Kingston, N.Y. at 43-45 days of age. The mice were housed five per cage in plastic shoebox cages on corn cob bedding in the Fels Animal Facility at 72°±2° F. with 50%±5% humidity and twelve hours of alternate light and darkness. The mice had ad libitum access to Purina chain 5015 and acidified water for pretreatment.
Six days later, the mice were weighed, earmarked and redistributed into six groups for treatment: 1) a control group, 2) a group treated with dexamethasone (“DEX”), a glucocorticoid which induces thymic and splenic atrophy, 3) a group treated with 200 mg/kg 16α-fluoro-5-androsten-17-one (hereinafter “drug”), 4) a group treated with 400 mg/kg of, 5) a group treated with dexamethasone and 200 mg/kg drug and 6) a group treated with dexamethasone and 400 mg/kg drug. The treatment in the groups were as follows and were conducted simuitaneously.
The control group was intubated with 0.2 mL of sesame oil for three days. On the third day after commencement of the intubation, the mice were injected subcutaneously with 0.05 mL of absolute ethanol one hour after the last treatment with sesame oil.
The second group was intubated with 0.2 mL of sesame oil for three days. On the third day after the commencement of the intubation, the mice were injected subcutaneously with 1.6 mg of dexamethasone dissolved in 0.05 mL of absolute ethanol approximately one hour after the last treatment with sesame oil.
The third and fourth groups were intubated with 200 mg/Kg and 400 mg/Kg drug, respectively, suspended in 0.2 mL of sesame oil for three days. After commencement of the intubation, the mice were injected subcutaneously with 0.05 mL of absolute ethanol approximately one hour after the last treatment with sesame oil.
The fifth and sixth groups were intubated with 200 mg/kg and 400 mg/kg, respectively, of drug, suspended in 0.2 mL of sesame oil for three days. On the third day after commencement of the intubation, the mice were injected subcutaneously with 1.6 mg of dexamethasome dissolved in 0.05 mL of absolute ethanol approximately one hour after the last treatment with sesame oil.
All of the mice were sacrificed by an overdose of CO2 approximately 24 hours after the injection of ethanol (first, third and fourth groups) or approximately 24 hours after injection with dexamethasone (second, fifth and sixth groups). The mice were weighed and the thymus was excised, cleaned of adventia, rinsed in phosphate-buffered saline (P.B.S.), blotted and weighed. The spleen was also excised, cleaned, rinsed, blotted and weighed.

For experiment [1], the system named is patients with rheumatoid arthritis. The experiment is described as follows: Oral fluasterone in rheumatoid arthritis patients, obese vs non-obese: triglycerides (Example 6). Format: in vivo, human. The protocol: In this clinical trial oral fluasterone (1200 mg) was administered daily to patients with rheumatoid arthritis for 3 to 12 weeks. Nine patients had baseline triglyceride levels 200 mg/dL. These patients were divided into obese (BMI>30) and non-obese (BMI<30) groups. […] However, the conclusion would be the same without the addition of this patient.
The baseline levels was the mean value of week −2, 0 and the treatment levels were the last values obtained (week 3 to 12) for each patient. The obese patients has a BMI of 36.6±4.0 and the non-obese a BMI of 27.1±1.5.

Experiment [2] concerns male BKS.Cg-m+/+Leprdb mice. Description: Fasting plasma triglyceride levels in diabetic mice (Example 9). It is filed as in vivo. An excerpt:
Eight week old male BKS.Cg-m^+/+Lepr^db mice were obtained from Jackson Laboratories. These mice have a point mutation in the leptin receptor gene and produce a truncated receptor with impaired signaling capacity. These animals are severely insulin resistant and manifest an uncontrolled rise in blood sugar, severe depletion of the insulin-producing beta-cells of the pancreatic islets, and death by 10 months of age. The male animals also have very low plasma testosterone levels and as a consequence undeveloped seminal vesicle glands. Administration of androgens to these mice produces an increase in seminal vesicle weights similar to that seen in castrated males. Thus these animals can be used to assess androgenic potency of various compounds.
A week later, the mice were treated subcutaneously (s.c.) with 0.05 mL fluasterone (16α-fluoro-5-androsten-17-one) suspended in an Emulphor-saline vehicle to give either a dose of 5 mg/kg s.c. or 20 mg/kg s.c. or intraperitoneally (i.p.) with 0.05 mL of fluasterone suspended in an Emulphor-saline vehicle to give a dose of 5 mg/kg. The Control mice received the Emulphor-saline vehicle s.c.
All the mice were anesthetized lightly with isoflurane before treatment with fluasterone to minimize the risk of stressing the mice while giving the s.c. dose. Their food was removed the afternoon before administration with drug and the chow was to the mice the next morning immediately after treatment. All the mice had their chow removed daily and restored just after fluasterone administration. During the week, the mice had access to chow for approximately 6½ hours, while on the weekends, the mice had approximately 4½ hours of access to chow. Mice were treated daily (weekdays and weekends).
Plasma triglyceride levels were determined with a Sigma kit (334-UV ). The determination is based on the enzymatic hydrolysis of triglycerides to glycerol and free fatty acids by lipase. Glycerol is subsequently phosphorylated by ATP to produce glycerol-1-phosphate and ADP. ATP is regenerated by a pyruvate kinase-catalyzed reaction between ADP and phosphoenol pyruvate. […] NADH absorbs at 340 nm, thus the decrease in absorbance, measured at this wavelength, is directly proportional to the triglyceride concentration in the sample.
Triglyceride Reagent A (containing ATP, lactate dehydrogenase, lipase, NADH, phosphoenol pyruvate, pyruvate kinase) and Triglyceride Reagent B were reconstituted with 10 mL and 2 mL of distilled water respectively. The Sample Regent is prepared by adding 0.25 mL of Triglyceride Reagent B to 10 mL of Triglyceride Reagent A. Blank, standards (50, 100 and 200 mg/dL) and sample tubes were prepared. One mL of Sample Reagent is added to all tubes. To the Blank tube, 20 μL of distilled water is added. For each Sample tube, 20 μL of plasma is added to the tube. All tubes were incubated at room temperature for 10 minutes. The tubes were read against a Reference containing distilled water. Triglyceride concentration in the samples were calculated by subtracting the absorbance of the Sample from the absorbance of the Blank and using the following formula: […]

The mark [3] stands for this setting: 200 mg/kg drug intubated for three days.
Setting [4] is: 400 mg/kg drug intubated for three days.

“And” between values parts separate entries of the source, which are not always exact repeats. Equal values may be shown once.

Consider `C[C@]12CCCCC1=CC[C@@H]1[C@@H]2CC[C@]2(C)C(=O)[C@H](F)C[C@@H]12` [fluasterone, 16α-fluoro-5-androsten-17-one], for which the figures for the “Spleen Wt.” value in the experiment on Female CD-1 mice (setting [3]) and with Female CD-1 mice (setting [4]) were 103.5 ± 9.2 mg and 129.4 ± 17.9 mg, respectively. For the same compound, the entries for the “Thymus Wt.” value with Female CD-1 mice (setting [3]) and in the experiment on Female CD-1 mice (setting [4]) were 65.0 ± 5.8 mg and 74.3 ± 7.1 mg, respectively. In the experiment with Female CD-1 mice (400 mg/kg), the “Effect on dexamethasone-induced thymic and splenic atrophy” value was “significantly reduced dexamethasone-induced thymic and splenic atrophy”. Moreover, the “Decline in triglyceride level, obese vs non-obese” value in experiment [1] (1200 mg oral daily, p=0.0113, group effect) was “significantly greater decline in triglyceride level than the non-obese”. For the same compound, the “Triglycerides (mean ± S.D.)” value in experiment [1] (Non-obese (BMI<30), baseline (mean of week −2, 0)) is 310 mg/dL and 330 ± 163 (10) mg/dL; in experiment [1] (Non-obese (BMI<30), treatment 1200 mg oral daily, last value (week 3 to 12)), 248 ± 89.8 (5) mg/dL; in experiment [1] (Obese (BMI>30), baseline (mean of week −2, 0)), 232 mg/dL and 231 ± 57.1 (10) mg/dL; in experiment [1] (Obese (BMI>30), treatment 1200 mg oral daily, last value (week 3 to 12)) it was 135 ± 12.1 (5) mg/dL. For the same compound, the “Fasting Plasma Triglyceride Levels” value in experiment [2] (5 mg/kg i.p., treatment day 0) is reported as 136 ± 38.4 mg/dL; in experiment [2] (5 mg/kg i.p., treatment day 7, less than s.c. Control, p < 0.02), 91.1 ± 14.5^2 mg/dL; in experiment [2] (5 mg/kg i.p., treatment day 14, less than s.c. Control, p < 0.01), 115 ± 14.2^4 mg/dL; in experiment [2] (5 mg/kg i.p., treatment day 17), 116 ± 17.0 mg/dL; in experiment [2] (5 mg/kg s.c., treatment day 0), 126 ± 20.9 mg/dL; in experiment [2] (5 mg/kg s.c., treatment day 7, less than s.c. Control, p < 0.02), 115 ± 33.3^2 mg/dL. Besides, the “Fasting Plasma Triglyceride Levels” value in experiment [2] (5 mg/kg s.c., treatment day 14, less than s.c. Control, p < 0.01) is on record as 115 ± 15.7^4 mg/dL; in experiment [2] (5 mg/kg s.c., treatment day 17), 115 ± 13.7 mg/dL; in experiment [2] (200 mg/kg oral, treatment day 0), 126 ± 18.6 mg/dL; in experiment [2] (200 mg/kg oral, treatment day 7, less than oral Control, p < 0.01), 107 ± 38.9^1 mg/dL; in experiment [2] (200 mg/kg oral, treatment day 14, less than oral Control, p < 0.001), 95.7 ± 15.6^3 mg/dL; in experiment [2] (200 mg/kg oral, treatment day 17, less than oral Control, p < 0.001), 100 ± 13.1^3 mg/dL.

The values are drawn from patent US20040019026A1, “Compounds useful for treating hypertriglyceridemia” (priority 2000, published 2004).
